From patent US20040038855A1 (priority 1999, published 2004)
Read-outs that look alike come from different tables or passages of the source.

Legend:
[1] = target: T1, rat MCH1 receptor (Rattus norvegicus, UniProt P97639); experiment: Binding affinity (Ki) at the rat MCH1 receptor
T1 construct: expressed in transfected cells

[2] = target: T2, human Dopamine D2 receptor (Homo sapiens, UniProt P14416); experiment: Binding affinity at the human dopamine D2 receptor; conditions: Table 3c; read-out: hD2 Ki
T2 construct: purchased BioSignal, Inc. (Montreal, Canada)
T2 sequence (P14416 whole entry): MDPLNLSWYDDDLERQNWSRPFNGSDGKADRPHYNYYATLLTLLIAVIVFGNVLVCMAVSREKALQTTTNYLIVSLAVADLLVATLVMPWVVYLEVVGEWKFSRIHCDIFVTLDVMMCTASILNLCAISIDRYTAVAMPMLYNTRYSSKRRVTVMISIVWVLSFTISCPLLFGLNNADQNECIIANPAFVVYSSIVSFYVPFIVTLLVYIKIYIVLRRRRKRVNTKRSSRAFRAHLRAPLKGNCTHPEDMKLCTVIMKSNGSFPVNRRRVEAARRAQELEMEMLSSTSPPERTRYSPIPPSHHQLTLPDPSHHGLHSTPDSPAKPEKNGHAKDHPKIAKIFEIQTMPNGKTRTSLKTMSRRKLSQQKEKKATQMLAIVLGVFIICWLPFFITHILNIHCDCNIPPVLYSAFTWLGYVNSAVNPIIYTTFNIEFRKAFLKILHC
Summary of the method: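 D1/D2: membranes from cells expressing human receptor, binding format. α2A, D5: receptor binding assays, conditions not detailed.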

[3] = target: T3, human Histamine H1 receptor (Homo sapiens, UniProt P35367); experiment: Binding affinity at the human histamine H1 receptor; conditions: Table 3c; read-out: hH1 Ki
T3 construct: expressed in transfected cells
T3 sequence (P35367 whole entry): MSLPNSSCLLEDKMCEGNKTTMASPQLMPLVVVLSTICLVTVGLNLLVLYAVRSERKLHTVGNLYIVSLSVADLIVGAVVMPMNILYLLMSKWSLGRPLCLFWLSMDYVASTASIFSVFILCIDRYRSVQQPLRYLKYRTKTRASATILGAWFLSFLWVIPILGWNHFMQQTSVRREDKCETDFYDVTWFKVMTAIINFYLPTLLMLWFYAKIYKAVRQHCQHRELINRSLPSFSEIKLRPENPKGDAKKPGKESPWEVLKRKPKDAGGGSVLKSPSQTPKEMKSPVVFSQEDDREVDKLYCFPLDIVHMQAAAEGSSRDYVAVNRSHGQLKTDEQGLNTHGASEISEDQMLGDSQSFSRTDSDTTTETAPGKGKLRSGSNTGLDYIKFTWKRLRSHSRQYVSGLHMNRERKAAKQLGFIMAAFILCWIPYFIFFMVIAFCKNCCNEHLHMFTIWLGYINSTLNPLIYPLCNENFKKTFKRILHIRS
Summary of the method: (§1)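 Receptor binding read-out throughout; membranes expressing human D1 or D2 receptor were used for those two targets.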

[4] = target: T4, human Alpha-1a Adrenergic receptor (Homo sapiens, UniProt P35348); experiment: Binding affinity at the human alpha-1A adrenergic receptor; conditions: Table 3c; read-out: hAlpha-1a Ki
T4 construct: expressed in transfected cells
T4 sequence (P35348 1-466): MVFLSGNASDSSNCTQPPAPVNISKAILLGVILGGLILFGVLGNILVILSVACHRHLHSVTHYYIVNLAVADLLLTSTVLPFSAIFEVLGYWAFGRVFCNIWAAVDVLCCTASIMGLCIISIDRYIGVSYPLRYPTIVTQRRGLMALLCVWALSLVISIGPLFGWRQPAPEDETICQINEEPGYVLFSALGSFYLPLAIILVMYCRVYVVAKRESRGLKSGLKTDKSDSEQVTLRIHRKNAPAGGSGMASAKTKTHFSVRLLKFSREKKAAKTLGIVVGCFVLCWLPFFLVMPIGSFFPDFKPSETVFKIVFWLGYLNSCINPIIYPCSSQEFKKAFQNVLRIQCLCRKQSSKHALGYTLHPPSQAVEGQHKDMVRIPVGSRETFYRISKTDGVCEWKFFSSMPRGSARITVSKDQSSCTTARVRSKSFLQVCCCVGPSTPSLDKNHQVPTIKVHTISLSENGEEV
Summary of the method: as §1

[5] = Examples 38-141, read-out: Ki (nM) rMCH1

T1 sequence (P97639 whole entry): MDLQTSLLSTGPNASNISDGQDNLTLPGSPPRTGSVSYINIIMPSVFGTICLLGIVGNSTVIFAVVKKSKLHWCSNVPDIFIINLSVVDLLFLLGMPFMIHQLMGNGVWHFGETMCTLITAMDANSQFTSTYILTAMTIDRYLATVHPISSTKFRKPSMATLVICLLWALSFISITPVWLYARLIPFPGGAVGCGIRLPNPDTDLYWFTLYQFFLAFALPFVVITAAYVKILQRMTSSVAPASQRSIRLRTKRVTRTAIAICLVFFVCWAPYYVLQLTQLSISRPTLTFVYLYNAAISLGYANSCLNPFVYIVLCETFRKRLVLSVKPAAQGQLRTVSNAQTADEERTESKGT

SMILES	Ki [1, 5]	Ki ([1]; Table 3c, read-out: rMCH1 Ki)	Ki [2]	Ki [3]	Ki [4]
CC(C)C(=O)Nc1cccc(C2CCN(CC[C@@H](Oc3cccc(Cl)c3)c3ccccc3)CC2)c1 [Example 124]	9.3 nM	9.3 nM	66 nM	329 nM	204 nM
CC(C)C(=O)Nc1cccc(C2CCN(CC[C@H](OC(=O)c3cccc4ccccc34)c3ccccc3)CC2)c1 [Example 125]	32.5 nM	32.5 nM	46.6 nM	> 50000 nM	232 nM
CC(C)C(=O)Nc1cccc(C2CCN(CC[C@H](Oc3ccccc3F)c3ccccc3)CC2)c1 [Example 127]	6.6 nM	6.6 nM	119 nM	1710 nM	226 nM
CC(=O)Nc1cccc(C2CCN(CCCNC(=O)N3C(=O)OC[C@@H]3c3cc(F)cc(F)c3)CC2)c1 [Example 128]	31.4 nM	31.4 nM	41500 nM	33100 nM	645 nM
CC(=O)Nc1cccc(C2CCN(CCCNC(=O)N3C(=O)OC(C)(C)C3c3ccc(F)c(F)c3)CC2)c1 (centres unmarked) [Example 130]	48.6 nM	48.6 nM	39500 nM	1860 nM	333 nM
CC(=O)Nc1cccc(C2CCN(CCCNC(=O)N3C(=O)OCC3Cc3ccc(F)cc3)CC2)c1 (centres unmarked) [Example 132]	44.6 nM	44.6 nM	41500 nM	39700 nM	11000 nM
CC(C)C(=O)Nc1cccc(C2CCN(CC[C@@H](Oc3cccc([N+](=O)[O-])c3)c3ccccc3)CC2)c1 [Example 135]	19.4 nM	19.4 nM	244 nM	507 nM	722 nM
CCOc1ccccc1O[C@@H](CCN1CCC(c2cccc(NC(=O)C(C)C)c2)CC1)c1ccccc1 [Example 136]	14.3 nM	14.3 nM	833 nM	9790 nM	620 nM

More lines, in order of falling Ki [1, 5], values ahead:

Ki [1, 5]	Ki ([1]; Table 3c, read-out: rMCH1 Ki)	Ki [2]	Ki [3]	Ki [4]	SMILES
50 nM	50 nM	1050 nM	8000 nM	1520 nM	CC(=O)c1ccccc1O[C@@H](CCN1CCC(c2cccc(NC(=O)C(C)C)c2)CC1)c1ccccc1 [Example 126]
25.7 nM	25.7 nM	447 nM	4180 nM	167 nM	CC(C)C(=O)Nc1cccc(C2CCN(CC[C@@H](Oc3ccccc3[N+](=O)[O-])c3ccccc3)CC2)c1 [Example 133]
22.3 nM	22.3 nM	41500 nM	6520 nM	381 nM	CC(=O)Nc1cccc(C2CCN(CCCNC(=O)N3C(=O)OC[C@@H]3c3cc(F)c(F)c(F)c3)CC2)c1 [Example 129]
11.8 nM	11.8 nM	19000 nM	2840 nM	2470 nM	CC(=O)Nc1cccc(C2CCN(CCCNC(=O)N3C(=O)O[C@H](C)C3c3ccc(F)c(F)c3)CC2)c1 (some centres unmarked) [Example 131]
3.2 nM	3.2 nM	2450 nM	3820 nM	3020 nM	CC(=O)c1cccc(O[C@@H](CCN2CCC(c3cccc(NC(=O)C(C)C)c3)CC2)c2ccccc2)c1 [Example 141]
